Experimental data from ChEMBL document CHEMBL5113380, “Functionalized quinoxalinones as privileged structures with broad-ranging pharmacological activities” (Eur J Med Chem, 2022).
≈ marks a conversion by molar mass, not a printed value.

Molecular target: T1, Glutamate receptor ionotropic AMPA (Homo sapiens, UniProt P42261+P42262+P42263+P48058)
Test: Displacement of [3H]kainic acid from AMPA receptor (unknown origin)
Assay type: protein-complex assay
Settings: not given

Structure (SMILES) | IC50 [µM]
O=C(O)c1cc2c3cc(Cl)c(Cl)cc3[nH]c(=O)n2n1 | 41

Tested on: not listed separately
Test: Antioxidant activity assessed as DPPH radical scavenging activity
Assay type: functional
Settings: not given

Structure (SMILES) | IC50 [mg/L]
Cc1nc2ccccc2n(CC(=O)N/N=C/c2ccc(OCCn3cc(CN4CCCC4)nn3)cc2)c1=O | 27.17 (≈ 52.8 µM)
Cc1ccc(-n2cc(COc3ccc(/C=N/NC(=O)Cn4c(=O)c(C)nc5ccccc54)cc3)nn2)cc1 | 26.04 (≈ 51.3 µM)
Cc1nc2ccccc2n(CC(=O)N/N=C/c2ccc(OCCn3cc(CN4CCOCC4)nn3)cc2)c1=O | 25 (≈ 47.1 µM)

Tested on: Aspergillus fumigatus
Test: Antifungal activity against Aspergillus fumigatus
Assay type: functional
Settings: not given

Structure (SMILES) | MIC [mg/L]
C/C(=N\NC(=O)Cn1c(=O)c(C)nc2ccccc21)c1ccc(N)cc1 | 1 (≈ 2.86 µM)
C/C(=N\NC(=O)Cn1c(=O)c(C)nc2ccccc21)c1ccc(O)cc1 | 4 (≈ 11.4 µM)
C/C(=N\NC(=O)Cn1c(=O)c(C)nc2ccccc21)c1cccnc1 | 8.06 (≈ 24 µM)
COc1ccc(/C(C)=N/NC(=O)Cn2c(=O)c(C)nc3ccccc32)cc1 | 8.06 (≈ 22.1 µM)

Molecular target: Glutamate [NMDA] receptor
Test: Displacement of [3H]MK-801 from NMDA receptor (unknown origin)
Assay type: protein-complex assay, Homo sapiens
Settings: not given

Structure (SMILES) | IC50 [µM] | EC50 [µM]
O=C(O)c1cc2c3cc(Cl)c(Cl)cc3[nH]c(=O)n2n1 | 0.89 | –
O=C(O)c1nc2c(=O)[nH]c3cc(Cl)c(Cl)cc3n2n1 | – | 0.3

Tested on: Staphylococcus aureus
Test: Antibacterial activity against Staphylococcus aureus
Assay type: functional
Settings: not given

Structure (SMILES) | MIC [mg/L]
C/C(=N\NC(=O)Cn1c(=O)c(C)nc2ccccc21)c1ccc(N)cc1 | 125 (≈ 358 µM)
C/C(=N\NC(=O)Cn1c(=O)c(C)nc2ccccc21)c1ccc(O)cc1 | 250 (≈ 714 µM)
C/C(=N\NC(=O)Cn1c(=O)c(C)nc2ccccc21)c1cccnc1 | 250 (≈ 745 µM)
COc1ccc(/C(C)=N/NC(=O)Cn2c(=O)c(C)nc3ccccc32)cc1 | 62.5 (≈ 172 µM)

Tested on: Coronary artery
Test: Vasorelaxant activity in dog coronary arteries
Assay type: functional, tissue-based
Settings: Canis lupus familiaris

Structure (SMILES) | EC50 [µM]
CCc1nc(C)c2c(O)nc3ccccc3n12 | 1.7
CCc1ncc2c(O)nc3cccnc3n12 | 0.3

Tested on: Escherichia coli
Test: Antibacterial activity against Escherichia coli
Assay type: functional
Settings: not given

Structure (SMILES) | MIC [mg/L]
C/C(=N\NC(=O)Cn1c(=O)c(C)nc2ccccc21)c1ccc(N)cc1 | 125 (≈ 358 µM)
C/C(=N\NC(=O)Cn1c(=O)c(C)nc2ccccc21)c1ccc(O)cc1 | 125 (≈ 357 µM)
C/C(=N\NC(=O)Cn1c(=O)c(C)nc2ccccc21)c1cccnc1 | 125 (≈ 373 µM)
COc1ccc(/C(C)=N/NC(=O)Cn2c(=O)c(C)nc3ccccc32)cc1 | 125 (≈ 343 µM)

Tested on: not listed separately
Test: Antioxidant activity assessed as NO radical scavenging activity
Assay type: functional
Settings: not given

Structure (SMILES) | IC50 [mg/L]
Cc1nc2ccccc2n(CC(=O)N/N=C/c2ccc(OCCn3cc(CN4CCCC4)nn3)cc2)c1=O | 53.19 (≈ 103 µM)
Cc1ccc(-n2cc(COc3ccc(/C=N/NC(=O)Cn4c(=O)c(C)nc5ccccc54)cc3)nn2)cc1 | 48.07 (≈ 94.7 µM)
Cc1nc2ccccc2n(CC(=O)N/N=C/c2ccc(OCCn3cc(CN4CCOCC4)nn3)cc2)c1=O | 47.16 (≈ 88.9 µM)

Tested on: not listed separately
Test: Antioxidant activity assessed as H2O2 radical scavenging activity
Assay type: functional
Settings: not given

Structure (SMILES) | IC50 [mg/L]
Cc1nc2ccccc2n(CC(=O)N/N=C/c2ccc(OCCn3cc(CN4CCCC4)nn3)cc2)c1=O | 56.81 (≈ 110 µM)
Cc1ccc(-n2cc(COc3ccc(/C=N/NC(=O)Cn4c(=O)c(C)nc5ccccc54)cc3)nn2)cc1 | 52.08 (≈ 103 µM)
Cc1nc2ccccc2n(CC(=O)N/N=C/c2ccc(OCCn3cc(CN4CCOCC4)nn3)cc2)c1=O | 49.01 (≈ 92.4 µM)

Molecular target: not listed separately
Test: Inhibition of cGMP-dependent 3',5'-cyclic phosphodiesterase (unknown origin)
Design: species or system Homo sapiens
Settings: not given

Structure (SMILES) | IC50 [µM]
CCc1nc(C)c2c(O)nc3ccccc3n12 | 0.4
CCc1ncc2c(O)nc3cccnc3n12 | 7

Tested on: Candida albicans
Test: Antifungal activity against Candida albicans
Assay type: functional
Settings: not given

Structure (SMILES) | MIC [mg/L]
C/C(=N\NC(=O)Cn1c(=O)c(C)nc2ccccc21)c1ccc(N)cc1 | 16.1 (≈ 46 µM)
C/C(=N\NC(=O)Cn1c(=O)c(C)nc2ccccc21)c1ccc(O)cc1 | 4 (≈ 11.4 µM)
C/C(=N\NC(=O)Cn1c(=O)c(C)nc2ccccc21)c1cccnc1 | 16.1 (≈ 47.9 µM)
COc1ccc(/C(C)=N/NC(=O)Cn2c(=O)c(C)nc3ccccc32)cc1 | 250 (≈ 686 µM)

Tested on: Mycobacterium tuberculosis
Test: Antimycobacterial activity against Mycobacterium tuberculosis H37Rv
Assay type: functional
Settings: not given

Structure (SMILES) | MIC [mg/L]
C/C(=N\NC(=O)Cn1c(=O)c(C)nc2ccccc21)c1ccc(N)cc1 | 25 (≈ 71.6 µM)
C/C(=N\NC(=O)Cn1c(=O)c(C)nc2ccccc21)c1ccc(O)cc1 | 25 (≈ 71.4 µM)
C/C(=N\NC(=O)Cn1c(=O)c(C)nc2ccccc21)c1cccnc1 | 25 (≈ 74.5 µM)
COc1ccc(/C(C)=N/NC(=O)Cn2c(=O)c(C)nc3ccccc32)cc1 | 25 (≈ 68.6 µM)

Molecular target: 3',5'-cyclic phosphodiesterase
Test: Inhibition of cAMP-specific 3',5'-cyclic phosphodiesterase (unknown origin)
Assay type: protein assay, Homo sapiens
Settings: not given

Structure (SMILES) | IC50 [µM]
CCc1nc(C)c2c(O)nc3ccccc3n12 | 2
CCc1ncc2c(O)nc3cccnc3n12 | 1

Tested on: Mesenteric vein
Test: Vasorelaxant activity in dog mesenteric veins
Assay type: functional, tissue-based
Settings: Canis lupus familiaris

Structure (SMILES) | EC50 [µM]
CCc1nc(C)c2c(O)nc3ccccc3n12 | 0.8
CCc1ncc2c(O)nc3cccnc3n12 | 0.5

Tested on: Papillary muscle
Test: Positive inotropic activity in ferret papillary muscle assessed as contractile force measured as CFC20
Assay type: functional, Mustela putorius furo
Settings: not given

Structure (SMILES) | Activity [µM]
CCc1nc(C)c2c(O)nc3ccccc3n12 | 0.2
CCc1ncc2c(O)nc3cccnc3n12 | 0.1

Molecular target: not listed separately
Test: Displacement of [3H]glycine from AMPA receptor (unknown origin)
Assay type: protein-complex assay, Homo sapiens
Settings: not given

Structure (SMILES) | Ki [µM]
O=C(O)c1cc2c3cc(Cl)c(Cl)cc3[nH]c(=O)n2n1 | 0.16
O=C(O)c1nc2c(=O)[nH]c3cc(Cl)c(Cl)cc3n2n1 | 0.074

Molecular target: T1, Glutamate receptor ionotropic AMPA
Test: Displacement of [3H]AMPA from AMPA receptor (unknown origin)
Assay type: protein-complex assay
Settings: not given

Structure (SMILES) | Ki [µM]
O=C(O)c1cc2c3cc(Cl)c(Cl)cc3[nH]c(=O)n2n1 | 2.4
O=C(O)c1nc2c(=O)[nH]c3cc(Cl)c(Cl)cc3n2n1 | 1.3

Tested on: Klebsiella pneumoniae
Test: Antibacterial activity against Klebsiella pneumoniae
Assay type: functional
Settings: not given

Structure (SMILES) | MIC [mg/L]
C/C(=N\NC(=O)Cn1c(=O)c(C)nc2ccccc21)c1ccc(N)cc1 | 125 (≈ 358 µM)
C/C(=N\NC(=O)Cn1c(=O)c(C)nc2ccccc21)c1ccc(O)cc1 | 125 (≈ 357 µM)
C/C(=N\NC(=O)Cn1c(=O)c(C)nc2ccccc21)c1cccnc1 | 125 (≈ 373 µM)
COc1ccc(/C(C)=N/NC(=O)Cn2c(=O)c(C)nc3ccccc32)cc1 | 125 (≈ 343 µM)

Tested on: Enterococcus faecalis
Test: Antibacterial activity against Enterococcus faecalis
Assay type: functional
Settings: not given

Structure (SMILES) | MIC [mg/L]
C/C(=N\NC(=O)Cn1c(=O)c(C)nc2ccccc21)c1ccc(N)cc1 | 16.1 (≈ 46 µM)
C/C(=N\NC(=O)Cn1c(=O)c(C)nc2ccccc21)c1ccc(O)cc1 | 16.1 (≈ 45.8 µM)
C/C(=N\NC(=O)Cn1c(=O)c(C)nc2ccccc21)c1cccnc1 | 16.1 (≈ 47.9 µM)
COc1ccc(/C(C)=N/NC(=O)Cn2c(=O)c(C)nc3ccccc32)cc1 | 131 (≈ 360 µM)
